How the values were obtained:
[1] = test system: mouse long-term hematopoietic stem cells; assay: Combination test with UM171 on mouse long-term hematopoietic stem cells; type: cell-based; details: for KLS-positive rate / Viable cell count / mCherry-positive rate: n=2
Protocol: The cells after classification were seeded in a 96-well plate. A cell culture medium was prepared by adding Stem Cell Factor (SCF, manufactured by PeproTech, Inc.) and Thrombopoietin (TPO, manufactured by PeproTech, Inc.) to StemSpan SFEM culture medium (manufactured by […] Technologies Inc.) and added in advance to a cell culture 96-well plate (manufactured by BD Biosciences) at 100 μL/well, and the cells sorted with the FACS Aria II cell sorter (BD Biosciences) were then seeded at 10 cells/well.
The test compounds each in the form of 10 mM DMSO solution were diluted with the cell culture medium to a final concentration of 1 μM, and added to the cells seeded after classification through medium exchange to a final volume of 200 μL/well. Thereafter, the cells were cultured in a CO2 incubator under conditions of 37° C. and 5% CO2 for 1 week.
After culture, the cells were stained with the antibodies for the surface markers c-Kit and Sca-1, Ter-119, B220, CD3, CD4, CD8a, Gr-1, and CD11b, and the ratio and post-growth cell count of a KLS fraction (c-Kit^+, Lin^−, Sca-1^+) or an mCherry-positive fraction given with use of a FACS Aria II cell sorter were analyzed by using FlowJo (BD Biosciences). The mCherry-positive fraction is a cell fraction expressing the Hoxb5 gene, and the KLS fraction is a cell fraction being c-Kit-positive, Lin-negative, and Sca-1-positive, and includes hematopoietic stem cells and multipotent progenitor cells as main components.
A DMSO solution of artemether was adjusted with the cell culture medium to three final concentrations (0.1 μM, 1 μM, 10 μM), and a DMSO solution of UM171 was adjusted with the cell culture medium to four final concentrations (0.1 μM, 0.3 μM, 1 μM, 3 μM), and cell culture was performed at n=2 by the same method as in Example 1. The cell culture and evaluation criteria were the same as those in Example 2.

[2] = test system: mouse long-term hematopoietic stem cells; assay: Reproducibility and concentration dependence test: 1-week culture of sorted Hoxb5-tri-mCherry mouse long-term hematopoietic stem cells, flow cytometry; type: cell-based; details: day 7 of culture, n=2
Procedure, shortened: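 Hoxb5-tri-mCherry+ LT-HSCs (Lin−c-Kit+Sca-1+Flk2−CD34−/lo CD150+) were sorted from mouse bone marrow at 10 cells/well into StemSpan SFEM with SCF and TPO. Cells were cultured with compound for 1 week at 37°C, 5% CO2. Flow cytometry then measured KLS and mCherry+ fractions and cell counts.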

[3] = UM171 0.1 μM alone (DMSO, no artemether)
[4] = UM171 0.3 μM alone (DMSO, no artemether)
[5] = UM171 1 μM alone (DMSO, no artemether)
[6] = UM171 3 μM alone (DMSO, no artemether)

SMILES: Cn1nnc(-c2ccc3c(c2)[nH]c2nc(Cc4ccccc4)nc(N[C@H]4CC[C@H](N)CC4)c23)n1 [UM171, (1r,4r)-N1-(2-benzyl-7-(2-methyl-2H-tetrazol-5-yl)-9H-pyrimido[4,5-b]indol-4-yl)cyclohexane-1,4-diamine]
- KLS-positive rate [1, 3]: 41.0%
- Viable cell count [1, 3]: 508.0 cell
- mCherry-positive rate [1, 3]: 4.7%
- KLS-positive rate [1, 4]: 71.6%
- Viable cell count [1, 4]: 281.0 cell
- mCherry-positive rate [1, 4]: 17.1%
- KLS-positive rate [1, 5]: 98.0%
- Viable cell count [1, 5]: 24.5 cell
- mCherry-positive rate [1, 5]: 38.9%
- KLS-positive rate [1, 6]: 82.2%
- Viable cell count [1, 6]: 82.5 cell
- mCherry-positive rate [1, 6]: 16.2%
- Effect of culture with artemether and UM171 together on mCherry-positive and KLS-positive cell ratios ([1]; compared with any one of the substances alone): combinational effect

SMILES: C[C@H]1[C@@H](CN)O[C@@H]2O[C@@]3(C)CC[C@H]4[C@H](C)CC[C@@H]1[C@@]24OO3 [Example 1-17, 1-[(3R,5aS,6R,8aS,9R,10S,12R,12aR)-3,6,9-Trimethyldecahydro-12H-3,12-epoxypyrano[4,3-j][1,2]benzodioxepin-10-yl]methanamine]
- KLS-positive rate ([2]; Table 4, compound 0.1 μM): 15.9%
- Viable cell count ([2]; Table 4, compound 0.1 μM): 947.0 cell
- mCherry-positive rate ([2]; Table 4, compound 0.1 μM): 4.9%
- KLS-positive rate ([2]; Table 4, compound 0.3 μM): 16.1%
- Viable cell count ([2]; Table 4, compound 0.3 μM): 902.0 cell
- mCherry-positive rate ([2]; Table 4, compound 0.3 μM): 2.5%
- KLS-positive rate ([2]; Table 4, compound 1 μM): 19.4%
- Viable cell count ([2]; Table 4, compound 1 μM): 641.5 cell
- mCherry-positive rate ([2]; Table 4, compound 1 μM): 16.1%
- KLS-positive rate ([2]; Table 4, compound 3 μM): 24.0%
- Viable cell count ([2]; Table 4, compound 3 μM): 315.0 cell
- mCherry-positive rate ([2]; Table 4, compound 3 μM): 70.1%
- KLS-positive rate ([2]; Table 4, compound 10 μM): 51.8%
- Viable cell count ([2]; Table 4, compound 10 μM): 80.0 cell
- mCherry-positive rate ([2]; Table 4, compound 10 μM): 100.0%

SMILES: CS[C@@H]1O[C@@H]2O[C@@]3(C)CC[C@H]4[C@H](C)CC[C@@H]([C@H]1C)[C@@]24OO3 [Example 1-3, (3R,5aS,6R,8aS,9R,10S,12S,12aR)-3,6,9-Trimethyl-10-(methylsulfanyl)decahydro-12H-3,12-epoxypyrano[4,3-j][1,2]benzodioxepine]
- KLS-positive rate ([2]; Table 4, compound 0.1 μM): 15.8%
- Viable cell count ([2]; Table 4, compound 0.1 μM): 445.0 cell
- mCherry-positive rate ([2]; Table 4, compound 0.1 μM): 8.0%
- KLS-positive rate ([2]; Table 4, compound 0.3 μM): 18.6%
- Viable cell count ([2]; Table 4, compound 0.3 μM): 324.0 cell
- mCherry-positive rate ([2]; Table 4, compound 0.3 μM): 4.7%
- KLS-positive rate ([2]; Table 4, compound 1 μM): 20.3%
- Viable cell count ([2]; Table 4, compound 1 μM): 299.5 cell
- mCherry-positive rate ([2]; Table 4, compound 1 μM): 38.6%
- KLS-positive rate ([2]; Table 4, compound 3 μM): 24.2%
- Viable cell count ([2]; Table 4, compound 3 μM): 139.0 cell
- mCherry-positive rate ([2]; Table 4, compound 3 μM): 97.0%
- KLS-positive rate ([2]; Table 4, compound 10 μM): 83.4%
- Viable cell count ([2]; Table 4, compound 10 μM): 3.5 cell
- mCherry-positive rate ([2]; Table 4, compound 10 μM): 100.0%

SMILES: C[C@@H]1CC[C@H]2[C@@H](C)C(=O)O[C@@H]3O[C@@]4(C)CC[C@@H]1[C@]32OO4 [Example 1-33, artemisinin, reference compound]
- KLS-positive rate ([2]; Table 3, compound 0.1 μM): 33.2%
- Viable cell count ([2]; Table 3, compound 0.1 μM): 445.5 cell
- mCherry-positive rate ([2]; Table 3, compound 0.1 μM): 49.25%
- KLS-positive rate ([2]; Table 3, compound 0.3 μM): 18.2%
- Viable cell count ([2]; Table 3, compound 0.3 μM): 1020 cell
- mCherry-positive rate ([2]; Table 3, compound 0.3 μM): 28.15%
- KLS-positive rate ([2]; Table 3, compound 1 μM): 46.85%
- Viable cell count ([2]; Table 3, compound 1 μM): 728 cell
- mCherry-positive rate ([2]; Table 3, compound 1 μM): 60.85%
- KLS-positive rate ([2]; Table 3, compound 3 μM): 50.8%
- Viable cell count ([2]; Table 3, compound 3 μM): 229 cell
- mCherry-positive rate ([2]; Table 3, compound 3 μM): 81.3%
- KLS-positive rate ([2]; Table 3, compound 10 μM): 52%
- Viable cell count ([2]; Table 3, compound 10 μM): 282.5 cell
- mCherry-positive rate ([2]; Table 3, compound 10 μM): 80%
- KLS-positive rate ([2]; Table 4, compound 0.1 μM): 20.2%
- Viable cell count ([2]; Table 4, compound 0.1 μM): 268.5 cell
- mCherry-positive rate ([2]; Table 4, compound 0.1 μM): 28.1%
- KLS-positive rate ([2]; Table 4, compound 0.3 μM): 11.2%
- Viable cell count ([2]; Table 4, compound 0.3 μM): 309.5 cell
- mCherry-positive rate ([2]; Table 4, compound 0.3 μM): 23.5%
- KLS-positive rate ([2]; Table 4, compound 1 μM): 20.3%
- Viable cell count ([2]; Table 4, compound 1 μM): 268.0 cell
- mCherry-positive rate ([2]; Table 4, compound 1 μM): 56.8%
- KLS-positive rate ([2]; Table 4, compound 3 μM): 26.1%
- Viable cell count ([2]; Table 4, compound 3 μM): 85.0 cell
- mCherry-positive rate ([2]; Table 4, compound 3 μM): 81.8%
- KLS-positive rate ([2]; Table 4, compound 10 μM): 16.1%
- Viable cell count ([2]; Table 4, compound 10 μM): 178.0 cell
- mCherry-positive rate ([2]; Table 4, compound 10 μM): 78.8%

SMILES: C[C@H]1[C@H](C(=O)O)O[C@@H]2O[C@@]3(C)CC[C@H]4[C@H](C)CC[C@@H]1[C@@]24OO3 [Example 1-8, (3R,5aS,6R,8aS,9R,10R,12R,12aR)-3,6,9-Trimethyldecahydro-12H-3,12-epoxypyrano[4,3-j][1,2]benzodioxepine-10-carboxylic acid]
- KLS-positive rate ([2]; Table 4, compound 0.1 μM): 17.3%
- Viable cell count ([2]; Table 4, compound 0.1 μM): 396.5 cell
- mCherry-positive rate ([2]; Table 4, compound 0.1 μM): 3.0%
- KLS-positive rate ([2]; Table 4, compound 0.3 μM): 18.2%
- Viable cell count ([2]; Table 4, compound 0.3 μM): 379.5 cell
- mCherry-positive rate ([2]; Table 4, compound 0.3 μM): 7.7%
- KLS-positive rate ([2]; Table 4, compound 1 μM): 28.7%
- Viable cell count ([2]; Table 4, compound 1 μM): 248.0 cell
- mCherry-positive rate ([2]; Table 4, compound 1 μM): 12.0%
- KLS-positive rate ([2]; Table 4, compound 3 μM): 37.3%
- Viable cell count ([2]; Table 4, compound 3 μM): 204.5 cell
- mCherry-positive rate ([2]; Table 4, compound 3 μM): 12.9%
- KLS-positive rate ([2]; Table 4, compound 10 μM): 20.6%
- Viable cell count ([2]; Table 4, compound 10 μM): 286.5 cell
- mCherry-positive rate ([2]; Table 4, compound 10 μM): 29.0%

SMILES: C[C@H]1[C@H](NS(C)(=O)=O)O[C@@H]2O[C@@]3(C)CC[C@H]4[C@H](C)CC[C@@H]1[C@@]24OO3 [Example 1-11, N-[(3R,5aS,6R,8aS,9R,10R,12R,12aR)-3,6,9-Trimethyldecahydro-12H-3,12-epoxypyrano[4,3-j][1,2]benzodioxepin-10-yl]methanesulfonamide]
- KLS-positive rate ([2]; Table 4, compound 0.1 μM): 13.2%
- Viable cell count ([2]; Table 4, compound 0.1 μM): 452.5 cell
- mCherry-positive rate ([2]; Table 4, compound 0.1 μM): 14.3%
- KLS-positive rate ([2]; Table 4, compound 0.3 μM): 17.6%
- Viable cell count ([2]; Table 4, compound 0.3 μM): 267.0 cell
- mCherry-positive rate ([2]; Table 4, compound 0.3 μM): 29.2%
- KLS-positive rate ([2]; Table 4, compound 1 μM): 26.0%
- Viable cell count ([2]; Table 4, compound 1 μM): 196.0 cell
- mCherry-positive rate ([2]; Table 4, compound 1 μM): 60.4%
- KLS-positive rate ([2]; Table 4, compound 3 μM): 32.4%
- Viable cell count ([2]; Table 4, compound 3 μM): 31.0 cell
- mCherry-positive rate ([2]; Table 4, compound 3 μM): 86.2%
- KLS-positive rate ([2]; Table 4, compound 10 μM): 100.0%
- Viable cell count ([2]; Table 4, compound 10 μM): 1.5 cell
- mCherry-positive rate ([2]; Table 4, compound 10 μM): 100.0%

SMILES: C[C@H]1[C@@H](OC2CCCCC2)O[C@@H]2O[C@@]3(C)CC[C@H]4[C@H](C)CC[C@@H]1[C@@]24OO3 [Example 1-20, (3R,5aS,6R,8aS,9R,10S,12R,12aR)-10-(cyclohexyloxy)-3,6,9-trimethyldecahydro-12H-3,12-epoxypyrano[4,3-j][1,2]benzodioxepine]
- KLS-positive rate ([2]; Table 4, compound 0.1 μM): 0.0%
- Viable cell count ([2]; Table 4, compound 0.1 μM): 0.0 cell
- mCherry-positive rate ([2]; Table 4, compound 0.1 μM): 0.0%
- KLS-positive rate ([2]; Table 4, compound 0.3 μM): 0.0%
- Viable cell count ([2]; Table 4, compound 0.3 μM): 0.0 cell
- mCherry-positive rate ([2]; Table 4, compound 0.3 μM): 0.0%
- KLS-positive rate ([2]; Table 4, compound 1 μM): 0.0%
- Viable cell count ([2]; Table 4, compound 1 μM): 1.0 cell
- mCherry-positive rate ([2]; Table 4, compound 1 μM): 0.0%
- KLS-positive rate ([2]; Table 4, compound 3 μM): 0.0%
- Viable cell count ([2]; Table 4, compound 3 μM): 0.5 cell
- mCherry-positive rate ([2]; Table 4, compound 3 μM): 50.0%
- KLS-positive rate ([2]; Table 4, compound 10 μM): 0.0%
- Viable cell count ([2]; Table 4, compound 10 μM): 0.5 cell
- mCherry-positive rate ([2]; Table 4, compound 10 μM): 50.0%
